Measured values taken from patent publication US20230069174A1, “NITROGEN-CONTAINING HETEROCYCLIC AUTOTAXIN INHIBITOR, AND COMPOSITION CONTAINING SAME AND USE THEREOF” (SICHUAN HAISCO PHARMACEUTICAL CO., LTD., priority 2019, published 2023).
Like-named read-outs stand apart in the source and are kept apart here.

Biological target: T1, ATX (Homo sapiens, UniProt Q13822)
T1 construct: ATX activity was detected by detecting LPA production in pooled human plasma; from tissue; host or cells: pooled human plasma (heparin-anticoagulated whole blood, centrifuged)
Assay: ATX inhibitory activity: LPA production in pooled human plasma, LC-MS-MS
Format: biochemical
Settings: 37° C. 2 h
Experimental: Experimental subject: compounds to be tested.
ATX activity was detected by detecting LPA production in pooled human plasma. Whole blood anticoagulated with heparin was collected and centrifuged, and then plasma was collected. 5-μL gradient dilution of the compound to be tested or DMSO was added to 95-μL plasma, incubated at 37° C. for 2 h, then a stop solution (40 mM disodium hydrogen phosphate buffer, containing a buffer solution (containing 30 mM citric acid, pH=4)) was added. LPA in plasma was detected by LC-MS-MS before and after incubation.
LPA (18:2) and (20:4) LC-MS-MS analytical method
Using a 1.5 mL EP tube, 3.0 μL of each of the working solutions for standard curve and quality control was taken and added to 27.0 μL of water. After homogeneously mixing by vortex, 400 μL of internal standard solution was added. After homogeneously mixing by vortex, the mixture was centrifuged at 4° C. for 10 min. 180 μL of supernatant was taken and added into a 96-well plate, waiting for sample injection.
10 μL of the compound to be tested (10 mg/ml) was precisely pipetted into an EP tube, 990 μL of DMSO solution was added, and the mixture was vortexed to completely dissolve to obtain a solution (100 μg/mL).
Inhibition rate of ATX receptor activity was calculated in the following way: inhibition rate %=((LPAc−LPA0)−(LPAi−LPA0))/(LPAc−LPA0)*100%, wherein LPAc was the LPA content in plasma after DMSO was added and incubated for 2 h, LPA0 was the LPA content in plasma before DMSO was added for incubation, and LPAi was the LPA content in plasma after test compound was added and incubated for 2 h.

[1] = LPA 18:2 readout, read-out: Inhibitory activity against ATX receptor, LPA 18:2 IC50
[2] = LPA 20:4 readout, read-out: Inhibitory activity against ATX receptor, LPA 20:4 IC50

| SMILES | IC50 [1] [nM] | IC50 [2] [nM] |
| --- | --- | --- |
| C#Cc1ccc2c(c1)C[C@@H](Nc1ncc(-c3nnc(CC(=O)N4CCc5[nH]nnc5C4)o3)cn1)C2 (single isomer, unassigned) [Compound 40] | 1.51 | 1.56 |
| O=C(Cc1nnc(-c2cnc(N[C@H]3Cc4ccc(-c5ccoc5)cc4C3)nc2)o1)N1CCc2[nH]nnc2C1 (single isomer, unassigned) [Compound 42] | 2.86 | 2.69 |
| O=C(Cn1cc(-c2cnc(NC3Cc4ccccc4C3)nc2)c(OC2CC2)n1)N1CCc2[nH]nnc2C1 [Compound 1, 2-(3-cyclopropoxy-4-(2-((2,3-dihydro-1H-inden-2-yl)amino)pyrimidin-5-yl)-1H-pyrazol-1-yl)-1-(1,4,6,7-tetrahydro-5H-[1,2,3]triazolo[4,5-c]pyridin-5-yl)ethan-1-one] | 8.53 | – |
| N#Cc1nn(CC(=O)N2CCc3[nH]nnc3C2)cc1-c1cnc(NC2Cc3ccccc3C2)nc1 [Compound 2, 4-(2-((2,3-dihydro-1H-inden-2-yl)amino)pyrimidin-5-yl)-1-(2-oxo-2-(1,4,6,7-tetrahydro-5H-[1,2,3]triazolo[4,5-c]pyridin-5-yl)ethyl)-1H-pyrazole-3-carbonitrile] | 6.19 | 6.85 |
| CNC(=O)c1nn(CC(=O)N2CCc3[nH]nnc3C2)cc1-c1cnc(NC2Cc3ccccc3C2)nc1 [Compound 3, 4-(2-((2,3-dihydro-1H-inden-2-yl)amino)pyrimidin-5-yl)-N-methyl-1-(2-oxo-2-(1,4,6,7-tetrahydro-5H-[1,2,3]triazolo[4,5-c]pyridin-5-yl)ethyl)-1H-pyrazole-3-carboxamide] | 5.68 | 5.65 |
| O=C(N1CCc2[nH]nnc2C1)C1(c2nnc(-c3cnc(NC4Cc5ccccc5C4)nc3)o2)CC1 [Compound 4, (1-(5-(2-((2,3-dihydro-1H-inden-2-yl)amino)pyrimidin-5-yl)-1,3,4-oxadiazol-2-yl)cyclopropyl)(1,4,6,7-tetrahydro-5H-[1,2,3]triazolo[4,5-c]pyridin-5-yl)methanone] | 4.93 | 5.33 |
| O=C(Cc1nnc(-c2cnc(NC3Cc4ccc(C5CC5)cc4C3)nc2)o1)N1CCc2[nH]nnc2C1 (stereo not drawn) [Compound 7, 2-(5-(2-((5-cyclopropyl-2,3-dihydro-1H-inden-2-yl)amino)pyrimidin-5-yl)-1,3,4-oxadiazol-2-yl)-1-(1,4,6,7-tetrahydro-5H-[1,2,3]triazolo[4,5-c]pyridin-5-yl)ethan-1-one] | 7.46 | 7.67 |
| N#Cc1ccc2c(c1)CC(Nc1ncc(-c3nnc(CC(=O)N4CCc5[nH]nnc5C4)o3)cn1)C2 (stereo not drawn) [Compound 8, 2-((5-(5-(2-(6,7-dihydro-1H-[1,2,3]triazolo[4,5-c]pyridin-5(4H)-yl)-2-oxoethyl)-1,3,4-oxadiazol-2-yl)pyrimidin-2-yl)amino)-2,3-dihydro-1H-indene-5-carbonitrile] | 5.94 | 6.18 |
| O=C(Cc1nnc(-c2cnc(NC3Cc4ccc(C(F)F)cc4C3)nc2)o1)N1CCc2[nH]nnc2C1 (stereo not drawn) [Compound 9, 2-(5-(2-((5-(difluoromethyl)-2,3-dihydro-1H-inden-2-yl)amino)pyrimidin-5-yl)-1,3,4-oxadiazol-2-yl)-1-(1,4,6,7-tetrahydro-5H-[1,2,3]triazolo[4,5-c]pyridin-5-yl)ethan-1-one] | 3.26 | 3.65 |
| O=C(NC1(c2nnc(-c3cnc(NC4Cc5ccccc5C4)nc3)o2)CC1)N1CCc2[nH]nnc2C1 [Compound 14, N-(1-(5-(2-((2,3-dihydro-1H-inden-2-yl)amino)pyrimidin-5-yl)-1,3,4-oxadiazol-2-yl)cyclopropyl)-1,4,6,7-tetrahydro-5H-[1,2,3]triazolo[4,5-c]pyridine-5-carboxamide] | 5.97 | 6.56 |
| O=C(N1CCc2[nH]nnc2C1)C1(c2nnc(-c3cnc(NC4Cc5ccccc5C4)nc3)o2)CCC1 [Compound 20, (1-(5-(2-((2,3-dihydro-1H-inden-2-yl)amino)pyrimidin-5-yl)-1,3,4-oxadiazol-2-yl)cyclobutyl)(1,4,6,7-tetrahydro-5H-[1,2,3]triazolo[4,5-c]pyridin-5-yl)methanone] | 3.65 | 3.76 |
